These results are taken from patent US5814612A, “Retinol derivatives and uses thereof” (priority 1992, dated 1998).

The subject of one series is 5/2 cells. The series can be described thus: Growth-supporting activity on 5/2 cells in serum-free ITLB medium. In kind it is cell-based, human. As to the method:
The assay was done in 96-well microtiter plates in a final volume of 200 ul/well. The cells were cultured for 72 hours and cell growth determined by [^3 H] thymidine (0.8 μCi/well)labeling for the last 16 hours. Retinoids were added at the indicated concentrations at the initiation of culture and every 24 hours thereafter.
5/2 cells were grown in the absence of retinol in a medium containing the basic RPMI 1640 amino acid/salt mixture, insulin (5 μg/ml), transferrin (5 μg/ml), albumin (0.1%) and linoleic acid (10^-6 M) (ITLB). […] The dose-response curve shown in FIG. 26 indicates an effective concentration of 10^-7 M.

The next series relates to lymph node T cells. The series can be described thus: Proliferation of anti-CD3 activated lymph node T cells. In kind it is cell-based, BALB/c mouse. An excerpt:
(§1) Growth curves of lymph node T cells depleted of antigen-presenting cells (FIG. 17A) with and without 10^-6 M retinol at 2×10^5 and 5×10^4 cells/well. (FIG. 17B) Dose-responses elicited by different retinoids in cultures of lymph node T cells depleted of antigen-presenting cells. Also shown are the growth curves of CD4^+ (FIG. 17C) and CD8^+ T lymphocytes (FIG. 17D) in the presence of either retinol, 14HRR, human serum or in their absence.
(§2) T lymphocytes, purified as described, 5×10^4 /well, were activated with immobilized anti-CD3 antibody in ITLB medium. The indicated amounts of retinoids or human serum were added at initiation of cultures. […] 14HRR was added every 12 hours. DNA synthesis was measured by a 4 hour pulse with tritiated thymidine. SDs were ≤17%.
(§3) Mature T cells were obtained from pooled intestinal, axillary, inguinal and submandibular lymph nodes of 4 to 10-week-old BALB/c mice. To fractionate cells into CD4 and CD8 subsets and at the same time remove APC, a combination of adherence and complement lysis was used as follows:
(§4) The cell suspension in a volume of 2 ml was applied to a nylon wool column (40) (0.6 g of washed nylon fibers in the barrel of a 10 ml syringe) and incubated at 37° C. for 40 min. […] The success of the enrichment procedures was monitored cytofluorimetrically using FITC-conjugated anti-CD8 and PE-conjugated anti-CD4. […]
Cells were cultured in serum-free medium, referred to as ITLB, containing RPMI 1640 supplemented with 8×10^-7 M insulin (5 μg/ml), 7×10^-8 M transferrin (5 μg/ml), 2×10^-6 M linoleic acid, 2×10^-6 M delipidated BSA (0.12 mg/ml), 2 mM L-glutamine, 1 mM sodium pyruvate and antibiotics. […] The optimal concentration for stimulation of T cells was determined for each batch of anti-CD3 mAb and Con A. The optimal range of Con A was particularly narrow in serum-free medium (0.5-0.2 μg/ml) and varied with the cell density used. […] Cellular proliferation was determined by [^3 H] thymidine uptake (0.5 uCi/well; New England Nuclear, Boston, Mass.) after the incubation times indicated for each experiment with a 4 hour labeling pulse. […]

Another series deals with CD8^+ T lymphocytes. The series can be described thus: Proliferation of anti-CD3 plus IL-2 activated CD8+ T lymphocytes. In kind it is cell-based, BALB/c mouse.
Description: as §1, §2, §3, §4

Series [1] in a line: Stability of retinoids in serum-free tissue culture medium. Format: in vitro ADME.
Series [2] deals with lymphoblastoid cells (LCL). To be noted: cited from earlier work.
In a further series the test system is 26 mammalian cells. Briefly: 3H retinol conversion to P3/14HRR in 26 mammalian cells. To be noted: retinol bound to fetal calf serum. Format: in vitro ADME. On the procedure:
The use of ^3 H retinol bound to fetal calf serum was used as an assay to test for P3 in other cell lines.
The use of ^3 H retinol bound to fetal calf serum was used as an assay to test for 14HRR in other cell lines.
(§5) Legend: 2.5×10^6 cells were grown overnight in 5 ml RPMI/10% FBS. The FBS was preincubated at room temperature with 14.4 uCi [^3 H] retinol (NEN) for 4h. The cell pellet was washed twice with PBS. The retinoid were extracted according to MClean et al. 90 and separated on an analytical c18 reverse phase column according to FIG. 7. The DPM were determined using an on-line scintillation counter.

The next series has as its system 5/2. The series can be described thus: Retinol metabolism, 5/2. Format: in vitro ADME, human. On the procedure: as §5
The next series deals with Ket. The series can be described thus: Retinol metabolism, Ket. Format: in vitro ADME, human. On the procedure: as §5
Another series deals with RPMI. The series can be described thus: Retinol metabolism, RPMI (Leukemia ALL). In kind it is in vitro ADME. As to the method:
as §5

The next series has as its system SLA. The series can be described thus: Retinol metabolism, SLA. In kind it is in vitro ADME, mouse. As to the method: as §5
Another series relates to EL-4. Briefly: Retinol metabolism, EL-4. Format: in vitro ADME, mouse. On the procedure:
as §5

For the next series, the system named is P388D.1. The series can be described thus: Retinol metabolism, P388D.1. In kind it is in vitro ADME, mouse. On the procedure: as §5
The next series deals with N-tera2. The series can be described thus: Retinol metabolism, N-tera2. In kind it is in vitro ADME, human. As to the method:
as §5

For series [3] the following is noted: cited from earlier work.

“Also recorded” adds a separate entry of the source. Like-named read-outs stand apart in the source and are kept apart here. Where only a bound is given, the exact number is not on record here.

The term half-life denotes the time needed for the level to fall by half in the phase considered. With `CC(C=CC=C(C)C(O)CO)=CC=C1C(C)=CCCC1(C)C` (stereo not drawn) [14HRR, 14-hydroxy-4,14-retro-retinol], in the series on 5/2 cells, the “restoration of proliferation in absence of retinol” value was “restores the capacity to proliferate”. The “stimulation of lymph node T cells” value in the series with lymph node T cells is reported as “effective over the same dose range as observed for thymocytes”. The “response of CD8+ subset to anti-CD3 plus IL-2” value with CD8^+ T lymphocytes was “responded to the activating signal”. The half-life in [1] is ~4 h; in series [1] (tissue culture medium, data not shown), 4 h.
Take `CC1=C(/C=C/C(C)=C/C=C/C(C)=C/C(=O)O)C(C)(C)CCC1` [all-trans retinoic acid]: the “stimulation of lymph node T cells” value in the series on lymph node T cells is on record as “nearly inert”. For the same compound, in [2], the “support of growth of LCL in serum-free medium” value is reported as “but not retinoic acid, support the growth of LCL in serum-free medium”.
`CC1=C(/C=C/C(C)=C/C=C/C(C)=C/CO)C(C)(C)CCC1` [retinol, all-trans retinol]: in the series with 5/2 cells, the “restoration of proliferation in absence of retinol” value is “restores the capacity to proliferate”. Besides, the “formation of P3/14HRR from 3H retinol” value in the series on 26 mammalian cells is “radioactivity peak at the position where 14HRR normally elutes; also recorded: radioactivity peak at the position where P3 normally elutes”. Besides, the “Ester (% of taken up retinol)” value came out at 24% with 5/2; 41% in the series on Ket; 38% in the series on RPMI; 9% in the series with SLA; 44% in the series with EL-4; 26% in the series with P388D.1. For the same compound, the “Ester (% of taken up retinol)” value in the series with N-tera2 was 97%. In addition, the “P3 (% of taken up retinol)” value was 4% with 5/2; 3% in the series with Ket; 2% with RPMI; 3% in the series on SLA; 5% in the series with EL-4; 0.5% in the series with P388D.1. Besides, in the series with N-tera2, the “P3 (% of taken up retinol)” value was found to be 0.4%. The Total cts. with 5/2 is on record as 5.7 × 10^5 cts; in the series with Ket, 4.6 × 10^5 cts; in the series on RPMI, 1.2 × 10^5 cts; in the series on SLA, 6.1 × 10^5 cts; with EL-4 it was 2.8 × 10^5 cts; in the series on P388D.1, 1.4 × 10^5 cts. Further, the Total cts. with N-tera2 was 13.5 × 10^5 cts. In addition, the “support of growth of LCL in serum-free medium” value in series [2] is on record as “support the growth of LCL in serum-free medium”. The half-life in series [3] (serum-free cell culture (ref. 32)) is < 24 h; in series [3] (serum-free tissue culture medium, estimated (ref. 32)), ~24 h.
